Source: publication PMC2908543, “Uropathogenic Escherichia coli Modulates Immune Responses and Its Curli Fimbriae Interact with the Antimicrobial Peptide LL-37” (PLoS Pathogens, 2010)
Entries after “also recorded” stand apart in the source; their conditions may differ.

Tests used:
[1] = tested on: curli-mediated biofilm formation by E. coli; assay: Effect on formation of biofilm, crystal violet microtiter plate; type: cell-based, Escherichia coli
Method: To measure the ability of the bacteria to adhere and to form biofilm a crystal violet assay in polystyrene microtiter plates (Costar, Corning, NY, USA) was performed. Bacteria were grown in Luria-Bertani (LB) broth without salt for 24 h at 37°C without shaking. Biofilm was then stained with crystal violet (3%). The dye was solubilized with ethanol (95%) and the optical density was measured at 570 nm.
Plates were filled with 90 µL bacterial culture of planktonic cells and 10 µL of aqueous solution of LL-37 in the same concentrations as in the susceptibility assay. As control peptides, sLL-37 (Innovagen AB) and VIP [27] with similar structural properties as LL-37 were utilized. The plates were incubated without shaking at 37°C for 20 h. After incubation, the amount of biofilm formed was determined as described above.

[2] = tested on: wild-type curli; assay: Precipitation of LL-37 with wild-type curli, Western blot of supernatant; type: binding, Escherichia coli; conditions: 0.1 µM LL-37 in PBS with 5 µM wild-type curli, 1 h at 37°C
Method: The cellulose-deficient isogenic mutant of E. coli No. 12 was used to purify wild-type curli, as has been described. Colonies were harvested and suspended in 0.05 M Tris-buffer by using an omnimixer. Bacterial cell debris was discarded by centrifugation at 8000×g for 15 min and curli protein was precipitated by adding 0.1 M MgCl2 and 0.15 M NaCl. The aggregated curli were centrifuged at 16000×g for 15 min, and the pellet was dissolved in 10 mM TRIS, 1 mM EDTA, pH 7.5 with 2% 3-((3-cholamidopropyl)dimethylammonium)-1-propanesulfonate (CHAPS). After incubation for 45 min at 95°C, the solution was centrifuged at 20000×g for 10 min. The pellet containing curli was washed three times with water. Finally, curli were suspended in PBS and used for binding studies with LL-37.
LL-37 (0.1 µM in PBS) was mixed with 5 µM wild-type curli, or 5 µM recombinant polymerized CsgA. As control, the same concentration of LL-37 without curli or CsgA was utilized. The samples were incubated for 1 h at 37°C with shaking and centrifuged for 30 min at 10000×g. An aliquot of the supernatants was analyzed for the presence of LL-37 with Western blot.
Sample preparation and SDS-PAGE was carried out as described above and Western blot was performed as previously described. […]

[3] = tested on: recombinant polymerized CsgA; assay: Precipitation of LL-37 with polymerized CsgA, Western blot of supernatant; type: binding, Escherichia coli; conditions: 0.1 µM LL-37 in PBS with 5 µM recombinant polymerized CsgA, 1 h at 37°C
Method: (§1) CsgA-His6 and CsgG, a lipoprotein that is required for CsgA secretion, were overexpressed in LSR12 (C600::csg). The purification procedure of recombinant CsgA-His6 was performed as previously described with some modifications. The filtrate was incubated with nickel-nitrilotriacetic acid (Ni-NTA) agarose (Invitrogen) for 1 h at 4°C with shaking, centrifuged at 200×g for 5 min and transferred to a polyprep chromatography column (Bio-Rad, Hercules, CA, USA). To confirm protein identity of CsgA-His6, the isolated protein was prepared and subjected to SDS-PAGE as described below, and thereafter the protein was transferred from the gel to a polyvinylidene fluoride (PVDF) membrane (Invitrogen) at 160 mA for 60 min. The band of 15 kDa, corresponding to the molecular weight of CsgA-His6, was excised from the membrane stained with Coomassie Blue and analysed with N-terminal sequence analysis as has been described. Since it has previously been shown that CsgA-His6 has the same polymerizing properties as wild-type CsgA [59], we refer to CsgA-His6 as CsgA.
LL-37 (0.1 µM in PBS) was mixed with 5 µM wild-type curli, or 5 µM recombinant polymerized CsgA. As control, the same concentration of LL-37 without curli or CsgA was utilized. […] An aliquot of the supernatants was analyzed for the presence of LL-37 with Western blot. […]

[4] = molecular target: T1, CsgA polymerization (Escherichia coli, UniProt P28307); assay: CsgA polymerization, Thioflavin T assay, Tecan plate reader; type: biochemical; conditions: 20 µM ThT, 37°C
T1 construct: made in house; host or cells: E. coli LSR12 (C600::csg), co-expressed with CsgG
Method: as §1
Purified recombinant monomeric CsgA (10 µM) with or without different concentrations of the peptides LL-37, sLL-37 or VIP was mixed with 20 µM of the fiber-specific fluorescent probe ThT (Sigma-Aldrich). Fluorescence was measured with a Tecan infinite M200 reader (Tecan Nordic AB, Täby, Sweden). The excitation and emission wavelength was 430 and 490 nm, respectively. Measurements were conducted at 37°C every 10 min after shaking the sample for five seconds. Background fluorescence of the peptides themselves was subtracted.

[5] = molecular target: T2, monomeric CsgA (Escherichia coli, UniProt P28307); assay: CsgA monomer stability, SDS-PAGE; type: biochemical; conditions: 10 µM CsgA, 20 h at 37°C, Coomassie Blue, seen already at molar ratio 16∶1 (CsgA∶LL-37)
T2 construct: made in house; host or cells: E. coli LSR12 (C600::csg), co-expressed with CsgG
Method: To confirm the inhibition of CsgA polymerization we sought to analyse the stability of the CsgA monomer in the absence and presence of LL-37. Freshly purified, monomeric CsgA (10 µM) was incubated for 20 h at 37°C without or with different concentrations of LL-37 and was subsequently separated by SDS-PAGE. After staining with Coomassie Blue, bands corresponding to LL-37 and/or CsgA in monomeric, dimeric or tetrameric form were visualized. When CsgA was incubated alone, monomers were not visible although sometimes dimers and/or tetramers could be observed. This finding indicates spontaneous formation of CsgA oligomers and/or larger polymers that can not migrate into the gel due to their size. […] This was already seen at a molar ratio of 16∶1 (CsgA∶LL-37). To exclude degradation of CsgA as a possible explanation for the lack of the gel band, polymerized CsgA was treated with 90% formic acid, dissolving polymeric CsgA into monomers. After this treatment, a band corresponding to monomeric CsgA was detectable in the gel (Figure 8A).
Samples were prepared in LDS (lithium dodecyl sulphate) sample buffer (4∶1) and incubated at 70°C for 10 min. Electrophoresis was performed using 4–12% Bis-tris NU-PAGE gels (Invitrogen) at 200 V for 35 min. Gels were stained with Coomassie Blue for 1 h and destained over night in 90% water, 8% methanol and 2% acetic acid (vol/vol/vol).

[6] = tested on: Pseudomonas aeruginosa; conditions: ref [46]; cited from earlier work
From the text: Biofilm inhibition by antimicrobial polypeptides has previously been described for Pseudomonas aeruginosa. […] A direct interaction with biofilm components was not investigated in these studies. The effect was rather related to an influence of LL-37 on the bacterial gene expression profile or an influence of lactoferrin on free iron. These and our findings stress an important anti-biofilm role of antimicrobial polypeptides in host defense. It is likely that the anti-biofilm activit ...

T1 sequence (P28307 21-151): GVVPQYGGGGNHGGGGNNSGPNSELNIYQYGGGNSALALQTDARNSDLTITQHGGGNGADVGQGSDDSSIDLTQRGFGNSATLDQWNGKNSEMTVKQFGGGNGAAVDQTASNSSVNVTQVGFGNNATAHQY
T2 sequence (P28307 21-151): as above

Compound: CC[C@H](C)[C@H](NC(=O)[C@H](CCCCN)NC(=O)[C@H](CCC(=O)O)NC(=O)[C@H](CCCCN)NC(=O)[C@H](CO)NC(=O)[C@H](CCCCN)NC(=O)[C@H](CCCNC(=N)N)NC(=O)[C@H](Cc1ccccc1)NC(=O)[C@H](Cc1ccccc1)NC(=O)[C@H](CC(=O)O)NC(=O)CNC(=O)[C@H](CC(C)C)NC(=O)[C@@H](N)CC(C)C)C(=O)NCC(=O)N[C@@H](CCCCN)C(=O)N[C@@H](CCC(=O)O)C(=O)N[C@@H](Cc1ccccc1)C(=O)N[C@@H](CCCCN)C(=O)N[C@@H](CCCNC(=N)N)C(=O)N[C@H](C(=O)N[C@H](C(=O)N[C@@H](CCC(N)=O)C(=O)N[C@@H](CCCNC(=N)N)C(=O)N[C@H](C(=O)N[C@@H](CCCCN)C(=O)N[C@@H](CC(=O)O)C(=O)N[C@@H](Cc1ccccc1)C(=O)N[C@@H](CC(C)C)C(=O)N[C@@H](CCCNC(=N)N)C(=O)N[C@@H](CC(N)=O)C(=O)N[C@@H](CC(C)C)C(=O)N[C@H](C(=O)N1CCC[C@H]1C(=O)N[C@@H](CCCNC(=N)N)C(=O)N[C@H](C(=O)N[C@@H](CCC(=O)O)C(=O)N[C@@H](CO)C(=O)O)[C@@H](C)O)C(C)C)[C@@H](C)CC)C(C)C)[C@@H](C)CC [LL-37]
- reduction of biofilm formation ([1]; 2.5 µM LL-37, wild-type strain expressing curli and cellulose (data not shown)): more than 80%
- reduction of biofilm formation ([1]; 2.5 µM peptide, cellulose-negative, curli-expressing E. coli strain, 37°C, 20 h, two experiments in triplicates): more than 80%
- biofilm-inhibitory versus bactericidal concentrations ([1]; qualitative comparison): much lower than bactericidal concentrations
- LL-37 in supernatants after precipitation [2]: pronounced decrease of LL-37 in supernatants; also recorded: the levels of LL-37 decreased in the supernatants
- LL-37 in supernatants after precipitation [3]: pronounced decrease of LL-37 in supernatants; also recorded: the levels of LL-37 decreased in the supernatants
- inhibition of CsgA polymerization (ThT fluorescence) ([4]; 10 µM CsgA with different concentrations of peptide): inhibited by LL-37 in a dose-dependent manner
- inhibition of CsgA polymerization (ThT fluorescence) ([4]; 10 µM CsgA, molar ratio 1∶1 (CsgA∶LL-37), excitation 430 nm, emission 490 nm): fiber formation was completely inhibited
- CsgA monomer band at 15 kDa in presence of LL-37 [5]: a band migrating at 15 kDa, the predicted size of monomeric CsgA, could be observed; also recorded: the CsgA monomer is visible after SDS-PAGE
- bacterial surface motility mediated by type IV pili [6]: increased bacterial surface motility
